# Measured values taken from paper PMC8175350, “Drug repurposing screens identify chemical entities for the development of COVID-19 interventions” (Nature Communications, 2021).
# Where two headings read alike, the source gives them in different places.
# How the values were obtained:
# HeLa-ACE2 cells [1] = conditions: for EC50: read-out: HeLa-ACE2 cell count EC50 GeoMean, unrounded geometric mean
# SARS-CoV-2 [2] = assay: microbe, parasite or virus in culture; type: cell-based
# Calu-3 cells [3] = assay: Uninfected Calu-3 48 h Cell-Titer Glo cytotoxicity counter screen; conditions: for Calu-3 uninfected cytotoxicity Sinf Average: curve-fit effect at infinite concentration
# HeLa-ACE2 cells [4] = assay: Uninfected HeLa-ACE2 24 h live/dead cytotoxicity counter screen; type: cell-based, human; conditions: for HeLa-ACE2 uninfected cytotoxicity Sinf Average: curve-fit effect at infinite concentration
# SARS-CoV-2 [5] = assay: microbe, parasite or virus in culture; type: cell-based; conditions: for HeLa-ACE2 CoV-2 Sinf Average: curve-fit effect at infinite concentration
# Calu-3 cells [6] = conditions: for EC50: read-out: Calu-3 cell count EC50 GeoMean, unrounded geometric mean; for Calu-3 cell count Sinf Average: curve-fit effect at infinite concentration
# HeLa-ACE2 cells [7] = assay: cells; conditions: Homo sapiens, HeLa-ACE2, read-out: HeLa-ACE2 cell count EC50 GeoMean (µM), geometric mean of replicates
# in vitro = conditions: human, Calu-3 uninfected cytotoxicity CC50 GeoMean (µM)
# Calu-3 cells [8] = tested on: Calu-3 cells
# [9] = Uninfected HeLa-ACE2 24 h live/dead cytotoxicity counter screen; type: cell-based, human; conditions: human, uninfected HeLa-ACE2 cells, geometric mean of replicates; read-out: HeLa-ACE2 uninfected cytotoxicity CC50 GeoMean
# Calu-3 cells [10] = assay: cells; conditions: Homo sapiens
# [11] = human, cited from earlier work
# [12] = curve-fit effect at infinite concentration, average
# [13] = unrounded geometric mean, read-out: Calu-3 CoV-2 EC50 GeoMean
# [14] = read-out: Calu-3 uninfected cytotoxicity CC50 GeoMean, unrounded geometric mean
# [15] = unrounded geometric mean, read-out: HeLa-ACE2 uninfected cytotoxicity CC50 GeoMean
# [16] = unrounded geometric mean, read-out: HeLa-ACE2 CoV-2 EC50 GeoMean
Compound,EC50 (HeLa-ACE2 cells [1]) [µM],EC50 (SARS-CoV-2 [2]; [13]) [µM],Calu-3 uninfected cytotoxicity Sinf Average (Calu-3 cells [3]) [%],CC50 (Calu-3 cells [3]; [14]) [µM],HeLa-ACE2 uninfected cytotoxicity Sinf Average (HeLa-ACE2 cells [4]) [%],CC50 (HeLa-ACE2 cells [4]; [15]) [µM],HeLa-ACE2 CoV-2 Sinf Average (SARS-CoV-2 [5]) [%],EC50 (SARS-CoV-2 [5]; [16]) [µM],EC50 (Calu-3 cells [6]) [µM],Calu-3 CoV-2 Sinf Average (SARS-CoV-2 [2]; [12]) [%],Calu-3 cell count Sinf Average (Calu-3 cells [6]) [%],further results
CCN(CC)CCCNc1nccc2c(C)c3[nH]c4ccc(O)cc4c3c(C)c12 [SR-26050],0.48,0.503,-100,5.84,-98,0.602,-101,0.359,> 9.98,,,HeLa-ACE2 cell count Sinf Average (HeLa-ACE2 cells [1]; [12]): -103%; Calu-3 CoV-2 Sinf Average (SARS-CoV-2 [2]): -103%
CN(C)C(C(=O)Nc1ccc2c(=O)[nH]ccc2c1)c1ccsc1 (centres unmarked) [Verosudil],,,,,,,,,,,,"HeLa-ACE2 cell count Sinf Average (%) (HeLa-ACE2 cells [1]; Sinf average of the curves): -100%; EC50 (HeLa-ACE2 cells [7]): > 9.59 µM; CC50 at 48 h (in vitro): > 18.9 µM; Emax (SARS-CoV-2 [2]; Severe acute respiratory syndrome coronavirus 2, Calu-3, 48 h, Sinf average of the curves, read-out: Calu-3 CoV-2 Sinf Average (%)): 93%; EC50 (SARS-CoV-2 [2]; Severe acute respiratory syndrome coronavirus 2, Calu-3, geometric mean of replicates, read-out: Calu-3 CoV-2 EC50 GeoMean): > 3.51 µM; uninfected Calu-3 CC50 [μM] (Calu-3 cells [8]): > 18.887 ×÷ 2.21 (n=3) μM; Calu-3 uninfected cytotoxicity Sinf Average (%) (Calu-3 cells [8]; human, 48 h): 80%; CC50 at 24 h [9]: > 39.8 µM; HeLa-ACE2 uninfected cytotoxicity Sinf Average (%) (HeLa-ACE2 cells [4]; Sinf average of the curves): -100%; EC50 (SARS-CoV-2 [5]; Severe acute respiratory syndrome coronavirus 2, HeLa-ACE2, geometric mean of replicates, read-out: HeLa-ACE2 CoV-2 EC50 GeoMean): > 9.59 µM; Emax (Calu-3 cells [10]; Calu-3, 48 h, read-out: Calu-3 cell count Sinf Average (%)): 79%; EC50 (Calu-3 cells [10]; Calu-3, read-out: Calu-3 cell count EC50 GeoMean (µM), geometric mean of replicates): 0.561 µM"
Antimycin A3,> 9.59,0.0355,-79,> 3.9,-100,> 39.8,,> 9.59,0.0626,-92,47,
Mitoguazone,,0.446,,> 29.9,-99,> 39.8,-100,> 9.59,> 4.07,-94,71,"EC50 (SARS-CoV-2 [2]; reconfirmed hits, read-out: Calu-3 SARS-CoV-2 EC50): 0.446 µM; Approx. t1/2 ([11]; ref [33]-[49]): 175 h; Cmax ([11]; read-out: Approx. Cmax, IV, ref [44]): 120 µM; CC50 (Calu-3 cells [3]; read-out: Calu-3 Uninf. cells CC50, reconfirmed hits): > 30 µM; CC50 (HeLa-ACE2 cells [4]; reconfirmed hits, read-out: HeLa-ACE2 Uninf. cells CC50): > 40 µM; EC50 (SARS-CoV-2 [5]; reconfirmed hits, read-out: HeLa-ACE2 SARS-CoV-2 EC50): > 9.6 µM"
Oligomycin A,> 9.59,< 0.00735,,,,,,> 9.59,> 0.22,,50,
